In patent US7592366B2, “Therapeutic compounds” (Allergan, Inc., priority 2006, dated 2009):

Experiments:
EP2 = EP2 (Homo sapiens, UniProt P43116); experiment: Competition binding [3H]PGE2, EP2 Ki; parameters: expressed in transfected cells; host or cells: HEK 293; conditions: [3H]PGE2 competition, HEK 293 cells expressing human EP2
Procedure: Competition binding experiments were performed in a medium containing Hank's balanced salt solution, Hepes 20 mM, pH 7.3, membranes (˜60 μg protein) or 2×10^5 cells from HEK 293 cells stably expressing human EP2 receptors, [^3H]PGE2 (10 nM) and various concentrations of test compounds in a total volume of 300 μl. Reaction mixtures were incubated at 23° C. for 60 min, and were filtered over Whatman GF/B filters under vacuum. Filters were washed three times with 5 ml ice-cold buffer containing 50 mM Tris/HCl (pH 7.3). Non-specific binding was estimated in the presence of excess unlabeled PGE2 (10 μM). Binding data fitted to the binding model for a single class of binding sites, using nonlinear regression analysis. IC50 values thus obtained were converted to Ki using the equation of Ki=(IC50/(1+[L]/KD) where [L] represents PGE2 concentration (10 nM) and KD the dissociation constant for [^3H]PGE2 at human EP2 receptors (40 nM).
HEK-293 cells stably expressing the human or feline FP receptor, or EP1, EP2, or EP4 receptors were washed with TME buffer, scraped from the bottom of the flasks, and homogenized for 30 sec using a Brinkman PT 10/35 polytron. TME buffer was added to achieve a final 40 ml volume in the centrifuge tubes (the composition of TME is 100 mM TRIS base, 20 mM MgCl2, […]; 10N HCl is added to achieve a pH of 7.4).
The cell homogenate was centrifuged at 19000 r.p.m. for 20 min at 4° C. using a Beckman Ti-60 rotor. The resultant pellet was resuspended in TME buffer to give a final 1 mg/ml protein concentration, as determined by Biorad assay. Radioligand binding competition assays vs. [^3H-]17-phenyl PGF2α (5 nM) were performed in a 100 μl volume for 60 min. Binding reactions were started by adding plasma membrane fraction. The reaction was terminated by the addition of 4 ml ice-cold TRIS-HCl buffer and rapid filtration through glass fiber GF/B filters using a Brandel cell harvester. The filters were washed 3 times with ice-cold buffer and oven dried for one hour.
[^3H-] PGE2 (specific activity 180 Ci mmol) was used as the radioligand for EP receptors. [^3H] 17-phenyl PGF2α was employed for FP receptor binding studies. Binding studies employing EP1, EP2, EP4 and FP receptors were performed in duplicate in at least three separate experiments. A 200 μl assay volume was used. Incubations were for 60 min at 25° C. and were terminated by the addition of 4 ml of ice-cold 50 mM TRIS-HCl, followed by rapid filtration through Whatman GF/B filters and three additional 4 ml washes in a cell harvester (Brandel). Competition studies were performed using a final concentration of 5 nM [^3H]-PGE2, or 5 nM [^3H] 17-phenyl PGF2α and non-specific binding determined with 10^−5M of unlabeled PGE2, or 17-phenyl PGF2α, according to receptor subtype studied.

hDP/Gqs5 = molecular target: T1, hDP/Gqs5 (Homo sapiens, UniProt Q13258); experiment: FLIPR calcium signal, hDP; format: cell-based; conditions: read-out: Other Receptors (EC50 in nM) hDP
T1 construct: expressed in transfected cells; host or cells: HEK-293(EBNA)
T1 sequence (Q13258 1-359): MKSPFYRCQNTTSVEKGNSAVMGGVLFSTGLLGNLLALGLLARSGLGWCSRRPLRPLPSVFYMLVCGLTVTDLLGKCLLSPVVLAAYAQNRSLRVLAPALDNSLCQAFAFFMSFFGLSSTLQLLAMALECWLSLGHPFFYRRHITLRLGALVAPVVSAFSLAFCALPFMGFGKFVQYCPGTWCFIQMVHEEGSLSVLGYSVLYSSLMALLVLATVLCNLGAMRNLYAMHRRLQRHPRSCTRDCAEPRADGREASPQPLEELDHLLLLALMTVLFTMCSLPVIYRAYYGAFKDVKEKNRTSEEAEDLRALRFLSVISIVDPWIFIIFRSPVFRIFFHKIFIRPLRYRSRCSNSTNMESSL
Procedure: HEK-293(EBNA) cells, stably expressing one type or subtype of recombinant human prostaglandin receptors (prostaglandin receptors expressed: hDP/Gqs5; hEP1; hEP2/Gqs5; hEP3A/Gqi5; hEP4/Gqs5; hFP; hIP; hTP), were cultured in 100 mm culture dishes in high-glucose DMEM medium containing 10% fetal bovine serum, 2 mM l-glutamine, 250 μg/ml geneticin (G418) and 200 μg/ml hygromycin B as selection markers, and 100 units/ml penicillin G, 100 μg/ml streptomycin and 0.25 μg/ml amphotericin B.
Cells were seeded at a density of 5×10^4 cells per well in Biocoat® Poly-D-lysine-coated black-wall, clear-bottom 96-well plates (Becton-Dickinson) and allowed to attach overnight in an incubator at 37° C. Cells were then washed two times with HBSS-HEPES buffer (Hanks Balanced Salt Solution without bicarbonate and phenol red, 20 mM HEPES, pH 7.4) using a Denley Cellwash plate washer (Labsystems). After 45 minutes of dye-loading in the dark, using the calcium-sensitive dye Fluo-4 […] at a final concentration of 2 μM, plates were washed four times with HBSS-HEPES buffer to remove excess dye leaving 100 μl in each well. Plates were re-equilibrated to 37° C. for a few minutes.
Cells were excited with an Argon laser at 488 nm, and emission was measured through a 510-570 nm bandwidth emission filter (FLIPR™, Molecular Devices, Sunnyvale, Calif.). Drug solution was added in a 50 μl volume to each well to give the desired final concentration. The peak increase in fluorescence intensity was recorded for each well. On each plate, four wells each served as negative (HBSS-HEPES buffer) and positive controls (standard agonists: BW245C (hDP); PGE2 (hEP1; hEP2/Gqs5; hEP3A/Gqi5; hEP4/Gqs5); PGF2α (hFP); carbacyclin (hIP); U-46619 (hTP), depending on receptor). The peak fluorescence change in each drug-containing well was then expressed relative to the controls.
Compounds were tested in a high-throughput (HTS) or concentration-response (CoRe) format. In the HTS format, forty-four compounds per plate were examined in duplicates at a concentration of 10^−5 M. To generate concentration-response curves, four compounds per plate were tested in duplicates in a concentration range between 10^−5 and 10^−11 M. The duplicate values were averaged. In either, HTS or CoRe format each compound was tested on at least 3 separate plates using cells from different passages to give an n≧3.

Chain of EP2 (P43116 whole entry): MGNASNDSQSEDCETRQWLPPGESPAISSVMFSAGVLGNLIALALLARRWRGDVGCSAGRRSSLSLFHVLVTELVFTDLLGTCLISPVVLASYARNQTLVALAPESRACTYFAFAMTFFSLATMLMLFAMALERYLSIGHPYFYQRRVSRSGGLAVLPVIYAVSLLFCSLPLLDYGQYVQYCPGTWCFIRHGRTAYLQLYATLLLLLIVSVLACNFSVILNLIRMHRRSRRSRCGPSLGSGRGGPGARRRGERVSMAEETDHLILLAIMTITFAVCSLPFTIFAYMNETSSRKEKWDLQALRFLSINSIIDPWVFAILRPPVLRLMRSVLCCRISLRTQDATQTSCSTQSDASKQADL

Row | Ki (EP2) | EC50 (hDP/Gqs5) | Compound
1 | 2 nM | 12700 nM | O=C(O)c1ccc(CCC[C@@H]2[C@@H](CCc3cc(F)cc(F)c3)[C@H](O)C[C@H]2Cl)s1 [11d, 5-(3-((1R,2R,3R,5R)-5-chloro-2-(3,5-difluorophenethyl)-3-hydroxycyclopentyl)propyl)thiophene-2-carboxylic acid]
2 | 22 nM | > 10000 nM | O=C(O)c1ccc(CCC[C@@H]2[C@@H](CCc3cc(Cl)cc(Cl)c3)[C@@H](O)C[C@H]2Cl)s1 [compound 17, 5-(3-((1R,2R,3S,5R)-5-chloro-2-(3,5-dichlorophenethyl)-3-hydroxycyclopenty)propyl)thiophene-2-carboxylic acid]
